15 compounds from US7951779B2, “Method of protecting cells against damage and pharmaceutical composition comprising leumorphin” (Postech Academy-Industry Foundation, priority 2005, dated 2011) can be followed below.

Where a name gives a salt, the structure may show the parent alone. Read-outs that look alike come from different tables or passages of the source.

Test [1] concerns PC12 cells. In words: MTT conversion assay of cell viability under serum deprivation. In kind it is cell-based, rat.
The subject of test [2] is EGFR. In words: EGFR tyrosine phosphorylation, immunoprecipitation and Western blot in PC12 cells. The format is cell-based, rat. To be noted: preincubation 20 min: AG1478 1 μM, PP2 5 μM, naloxone or nor-BNI 1 μM; then leumorphin 1 μM 2 min. The protocol: Immunoprecipitation was performed as previously described (Daub et al., 1997). In brief, cells were washed with ice-cold PBS and lysed with lysis buffer (50 mM HEPES pH 7.5, 150 mM NaCl, 1% Triton X-100, 1 mM EDTA, 10% glycerol) containing protease inhibitors (0.5 mM PMSF, 1 μg/ml leupeptin and 5 μg/ml aprotinin) and phosphatase inhibitors (30 mM NaF, 1 mM Na3VO4 and 30 mM Na4O7P2). The cell lysates were incubated for 1 hr at 4° C. After centrifugation (12,000×g for 15 min), equal amounts of soluble extract were incubated for 4 hr, with 5 μg of anti-EGFR antibody and 30 μl of resin volume of immobilized protein G For gel electrophoresis, the precipitates were dissolved in Laemmli sample buffer.
FIGS. 5C and 5D, PC12 cells were stimulated with the indicated doses of leumorphin for 10 min (C) or with 1 μM of leumorphin for the indicated times (D). […] Cell lysates were subjected to Western blot analysis after immunoprecipitation with EGFR antibodies. Tyrosine-phosphorylated EGFRs were detected by immunoblotting with phosphotyrosine antibodies. The amounts of the precipitated EGFRs were monitored by reprobing the same blot with EGFR antibodies. […] In FIG. 5G, PC12 cells were preincubated with 1 μM AG1478 or 5 μM PP2 for 20 min and then stimulated with 1 μM leumorphin for 10 min. Phosphorylation of AKT and ERK was detected by Western blot analysis as in FIG. 4F. C-E,
In general terms: Immunoblotting shows a protein as a band on a membrane.

For test [3], the system named is AKT and ERK. In kind it is cell-based, rat.
Test [4] has as its system PC12 cells. In words: DNA ploidy analysis (FACS, sub-Go/Gl) in serum-deprived PC12 cells. The following applies: antagonist 1 μM with leumorphin 1 μM, 24 hr. In kind it is cell-based, rat. The protocol: Cells were suspended in PBS containing 5 mM EDTA and fixed in 100% ethanol. RNase A (50 μg/ml) was added to the suspended cells, and the cells were incubated at room temperature for 30 min. Propidium iodide (2 μg/ml) was added before reading. DNA contents of the cells were analyzed using a FACScan flow cytometer (Becton Dickinson, Franklin Lakes, N.J.), which was also used to determine the percentage of cells in the different phases of the cell cycle.
(§1) In FIG. 6A, Fragmentation of DNA in the nucleus was detected by a fluorescent TUNEL apoptosis assay. TUNEL stainings are shown in a-c, PI stainings are shown in d-f, and the merged images are presented in g-i. […] Each bar represents a fold increase of TUNEL-positive population of cells after treatment as indicated in serum-deprived condition versus those in serum-growing condition. In FIG. 6C, in order to analyze DNA ploidy, cells were fixed with ethanol, and FACS analysis was performed as described in “Materials and Methods”. In FIG. 6D, caspase-3 activity was measured by using a specific fluorogenic substrate of caspase-3 (Ac-DEVD -AMC) as described in “Materials and Methods”.

For test [5], the system named is PC12 cells. In words: Competition binding assay of 125I-labeled leumorphin in PC12 cells. Also noted: species or system rat. The following applies: 25 pM 125I-labeled leumorphin, 3 hr, 4° C. The protocol:
Ligand binding analysis was performed as previously described (Bae et al., 2004). Briefly, PC12 cells were seeded at a density of 4×10^5 cells/well into a 12-well plate and cultured overnight. After incubating the cells in blocking buffer (33 mM HEPES (pH 7.5) and 0.1% BSA in RPMI 1640) for 2 hr, 25 pM of ^125I-labeled leumorphin dissolved in binding buffer (PBS containing 0.1% BSA) was added to the cells in the absence or presence of unlabeled ligands and incubated for 3 hr at 4° C. The samples were then washed five times with ice-cold binding buffer, and 500 μl of 1 N NaOH was added to each well. After 10 min at room temperature, the lysates were collected and counted using a gamma counter.
We investigated the possibility that leumorphin might have another binding site(s), in addition to the binding site for the KOR in PC12 cells. That is, an inhibition of [^125I]leumorphin binding in PC12 cells was investigated. PC12 cells were treated with various concentrations of unlabeled leumorphin, (−)-U-50488 and nor-BNI in the presence of ^125I-labeled leumorphin (25 pM) for 3 hr at 4° C. Specifically bound ^125I-labeled leumorphin was measured as described in “Materials and Methods”. For this purpose, we performed competition binding assay of ^125I-labeled leumorphin with unlabeled-agonists, leumorphin and (−)-U-50488, and an antagonist, nor-BNI.

Test [6] relates to caspase-3. In words: Caspase-3 enzymatic activity in PC12 cell lysates. The format is cell-based, rat. To be noted: nor-BNI 1 μM with leumorphin 1 μM, 24 hr. As to the method:
PC12 cell lysates were centrifuged at 1,000×g for 10 min. Equal amount of supernatant (20 μg protein) was diluted in buffer containing 100 mM Hepes, 10% sucrose, 5 mM dithiothreitol, […], and 0.1% CHAPS (pH 7.25), and was added to each well of a 96-well plate containing 50 μM DEVD-aminomethylcoumarin (AMC). After incubation at 37° C. for 1 hr, the cleaved free AMC was detected using a fluorospectrophotometer (excitation of 355 nm, emission of 460 nm).
as §1

Test [7] addresses T1, KOR (Rattus norvegicus, UniProt P34975).
T1 construct: confirming that the KOR ligands we used have proper activities and that functional KOR is expressed in PC12 cells; endogenous in cells; host or cells: PC12 (rat pheochromocytoma)
The format is cell-based.

T1 sequence (P34975 whole entry): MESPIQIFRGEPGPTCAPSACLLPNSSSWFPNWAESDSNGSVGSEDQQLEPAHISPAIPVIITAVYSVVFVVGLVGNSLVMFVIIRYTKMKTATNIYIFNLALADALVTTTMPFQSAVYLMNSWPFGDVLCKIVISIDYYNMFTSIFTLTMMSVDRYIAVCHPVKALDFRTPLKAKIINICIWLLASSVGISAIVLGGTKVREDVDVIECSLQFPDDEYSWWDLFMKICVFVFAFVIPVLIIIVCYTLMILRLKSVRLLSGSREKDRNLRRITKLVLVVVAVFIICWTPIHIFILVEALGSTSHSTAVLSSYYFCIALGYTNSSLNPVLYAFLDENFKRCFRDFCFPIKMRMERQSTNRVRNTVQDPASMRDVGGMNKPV

On to `O=c1cc(N2CCOCC2)oc2c(-c3ccccc3)cccc12` [LY294002, [2-(4-morpholinyl)-8-phenyl-4H-1-benzopyran-4-one]], for which the “effect of kinase inhibitor on leumorphin-induced enhancement of cell viability” value (shortened to “effect of kinase inhibitor”) in test [1] (inhibitor 5 μM (AG1478 1 μM) with leumorphin 1 μM, 24 hr) is listed as “attenuated”.

Turning to `COc1cccc(-c2cc(=O)c3ccccc3o2)c1N` [PD98059, [2′-amino-3′-methoxyflavone], in test [1], the “effect of kinase inhibitor” value is recorded as “attenuated”.

Turning to `CC(C)(C)n1nc(-c2ccc(Cl)cc2)c2c(N)ncnc21` [PP2], in test [1], the “effect of kinase inhibitor” value is given as “significantly inhibited”. In addition, the “effect on leumorphin-induced tyrosine phosphorylation of EGFR” value (from here on “effect … of EGFR”) in test [2] is on record as “completely blocked to the basal level”. Moreover, the “effect on leumorphin-induced phosphorylation of AKT and ERK” value in test [3] was “significantly inhibited”.

`CS/C(N)=C(C#N)/C(C#N)=C(\N)SC` [U0124]: the “effect of kinase inhibitor” value in test [1] is reported as “had no effect”.

As for `N#CC(=C(/N)Sc1ccccc1N)/C(C#N)=C(\N)Sc1ccccc1N` [U0126], in test [1], the “effect of kinase inhibitor” value is “attenuated”.

`C=CCN1CC[C@]23c4c5ccc(O)c4O[C@H]2C(=O)CC[C@@]3(O)[C@H]1C5` [naloxone]: the “effect on leumorphin-induced enhancement of cell viability” value (shortened to “effect on leumorphin-induced enhancement”) in test [1] is “insensitive”. Further, the “effect … of EGFR” value in test [2] was “neither nor-BNI nor naloxone exhibited any inhibitory effect”. Also, in test [3], the “effect on leumorphin-induced phosphorylation of AKT and ERK” value was “Neither of the antagonists, naloxone and nor-BNI, inhibited”; the “effect on the phosphorylation level of AKT and ERK when given alone” value (“effect on the phosphorylation level” below) is on record as “did not have any effects”. Further, the “effect on the anti-apoptotic effect of leumorphin (sub-Go/Gl)” value in test [4] is “failed to block”.

`Oc1ccc2c3c1O[C@H]1c4[nH]c5ccccc5c4C[C@@]4(O)[C@@H](C2)N(CC2CC2)CC[C@]314` [naltrindole]: in test [1], the “effect on leumorphin-induced enhancement” value is “failed to attenuate” and the “effect on leumorphin-induced increase in cell viability at higher concentration” value (shortened to “effect on leumorphin-induced increase”) is “failed to attenuate”.

For `Oc1ccc2c3c1O[C@H]1c4[nH]c5c(c4C[C@@]4(O)[C@@H](C2)N(CC2CC2)CC[C@]314)C[C@@]1(O)[C@H]2Cc3ccc(O)c4c3[C@@]1(CCN2CC1CC1)[C@H]5O4` [nor-BNI, nor-binaltorphimine dihydrochloride], in test [1], the “effect on leumorphin-induced enhancement” value is recorded as “insensitive” and the “effect on leumorphin-induced increase” value is “failed to attenuate”. The “concentration at which the inhibitory extent reached its maximum and was saturated” value in test [5] is 100 nM. Besides, the “effect … of EGFR” value in test [2] was “neither nor-BNI nor naloxone exhibited any inhibitory effect”. In addition, in test [6], the “effect on the inhibitory effect of leumorphin on caspase activity” value is given as “not blocked”. Moreover, in test [3], the “effect on leumorphin-induced phosphorylation of AKT and ERK” value was “Neither of the antagonists, naloxone and nor-BNI, inhibited”; the “effect on the phosphorylation level” value is reported as “did not have any effects”. For the same compound, in test [4], the “effect on the anti-apoptotic effect of leumorphin (sub-Go/Gl)” value is “failed to block”. In test [7], the “effect on the inhibitory effect of leumorphin on forskolin-induced increase of cAMP content” value was “reversed”.

As for “D-Phe-Cys-Tyr-D-Trp-Om-Thr-Pen-Thr-NH2 [CTOP]”, in test [1], the “effect on leumorphin-induced enhancement” value was “failed to attenuate” and the “effect on leumorphin-induced increase” value is given as “failed to attenuate”.

In the case of UFP-101, the “effect on leumorphin-induced phosphorylation of AKT and ERK” value in test [3] is given as “did not have any effect”.

dynorphin: the “cell viability (MTT conversion, percentage of surviving cells)” value in test [1] is “did not have any significant effect on cell viability”. Moreover, the “phosphorylation of AKT and ERK” value in test [3] is on record as “none of these effects were elicited”.

As for pertussis toxin [PTX], in test [1], the “effect on leumorphin-induced enhancement” value is “unaffected”. In test [3], the “effect on leumorphin-induced phosphorylation of AKT and ERK” value was “did not have any inhibitory effects”; the “effect on the phosphorylation level” value is on record as “did not have any effects”. In addition, the “effect on the inhibitory effect of leumorphin on forskolin-induced increase of cAMP content” value in test [7] (naloxone or nor-BNI 1 μM, PTX 100 ng/ml 20 hr, leumorphin 1 μM) is “reversed”.

As to rimorphin, the “cell viability (MTT conversion, percentage of surviving cells)” value in test [1] was “none of these effects were elicited”. In addition, the “phosphorylation of AKT and ERK” value in test [3] was “none of these effects were elicited”.

As to “β-endorphin (YGGFMTSEKSQTPLVTLFKNAIIKNAYKKGE; Beta-endorphin; UniProt P01189 237-267, looked up) [an agonist of the ε-type receptor]”, in test [3], the “phosphorylation of AKT and ERK” value is given as “neither AKT nor ERK was phosphorylated”.

As for “β-neoendorphin (YGGFLRKYP; Beta-neoendorphin; UniProt P01213 175-183, looked up) [prodynorphin gene product, endogenous KOR ligand]”, the “cell viability (MTT conversion, percentage of surviving cells)” value in test [1] is listed as “none of these effects were elicited”. For the same compound, in test [3], the “phosphorylation of AKT and ERK” value is recorded as “none of these effects were elicited”.
